From US20140193454A1, “METHOD FROM PREPARING CERIPORIA LACERATA CULTURE EXTRACT AND PHARMACEUTICAL COMPOSITION FOR PREVENTION OR TREATMENT OF DIABETES AND DIABETIC COMPLICATIONS COMPRISING CERIPORIA LACERATA CULTURE EXTRACT AS ACTIVE INGREDIENT” (priority 2013, published 2014)

Key:
Format in all cases: in vivo
[1] = tested on: C57BL/Ksj (BL/Ls) homozygous diabetic (db/db) mice; assay: Organ weight of db/db mice after 6-week oral administration; conditions: 300 mg/kg orally every day, 6 weeks
Procedure: In the animals, as the leptin receptor decreases, the signaling ability decreases, and thus the blood glucose level increases. The animals are recognized as an insulin-independent diabetes model and suitable for the evaluation and comparison of experimental results on the basis of raw data. For these reason, these db/db mice were selected in this experiment. […] The mice were acclimated for about 7 days, and the weight and blood glucose level thereof were measured. 30 healthy animals suitable for experimentation and having no abnormal general conditions were selected. The experimental animals were divided according to a randomized block design into a negative control group, an exopolysaccharide low-dose group (150 mg/kg), an exopolysaccharide high-dose group (300 mg/kg) and a positive control group (metformin-300 mg/kg) such that the blood glucose level and weight are equal between the groups. These mice were reared for 6 weeks. In addition, normal and control groups, each consisting of 6 animals, were kept for 6 weeks under the same conditions. All test substances and positive control substances were orally administered at the same point of time every day, and the normal and negative control groups were orally administered with water (FIG. 11). During the rearing period of 6 week, a change in the weight was measured once weekly. In order to examine a change in the blood glucose level, the tail vein blood glucose level was measured using ACCU-CHEK Sensor (Germany) once weekly after 12-hr fasting. The experimental animals were fed with a commercially available animal solid feed (Samtaco Co. Ltd., Korea) and allowed access to water ad libitum. The animals were reared under the conditions of temperature of 23±3° C. and relative humidity of 50±10% with a 12-hr light/12-hr dark cycle (lighting: a.m. 8 to p.m. 8). For sacrifice of the experimental animals, all the animals were fasted for 12 hours and anesthetized with ether. Blood was taken from the saphenous vein and placed in a tube for serum separation. Then, the blood was centrifuged at 3,000 rpm for 20 minutes to obtain serum which was to be used as a sample for analysis of biochemical markers. Immediately after sacrifice, the liver, abdominal fat and the like were extracted from all the animals, weighed, fast-frozen at -80° C. and stored until use. Portions of the extracted liver and pancreas were fixed in 4% paraformaldehyde solution and subjected to histological analysis.

[2] = tested on: C57BL/Ksj (BL/Ls) homozygous diabetic (db/db) mice; assay: Changes in food intake, water intake and weight of db/db mice over 6 weeks; conditions: 300 mg/kg, versus other groups
Source text: (§1) In order to examine the blood glucose lowering effects of the Ceriporia lacerata culture and exopolysaccharide, C57BL/Ksj (BL/Ls) homozygous diabetic (db/db) mice (SPF) as a typical type 2 diabetes animal model were used in this experiment. db/db mice are animals in which diabetes is caused by a point mutation in the leptin receptor gene Lepr of chromosome 4. In the animals, as the leptin receptor decreases, the signaling ability decreases, and thus the blood glucose level increases. The animals are recognized as an insulin-independent diabetes model and suitable for the evaluation and comparison of experimental results on the basis of raw data. For these reason, these db/db mice were selected in this experiment. The db/db mice used in this study were 6-week-old male mice weighing about 30-40 g, and these mice were produced in Japan SLC Inc. and obtained from Central Laboratory Animal (Korea). The mice were acclimated for about 7 days, and the weight and blood glucose level thereof were measured. 30 healthy animals suitable for experimentation and having no abnormal general conditions were selected. […] During the rearing period of 6 week, a change in the weight was measured once weekly. In order to examine a change in the blood glucose level, the tail vein blood glucose level was measured using ACCU-CHEK Sensor (Germany) once weekly after 12-hr fasting. […]

[3] = tested on: C57BL/Ksj (BL/Ls) homozygous diabetic (db/db) mice; assay: Weekly tail vein blood glucose level after 12-hr fasting; conditions: after 3 weeks (diabetes control about 400 mg/dL)
Source text: as §1

CN(C)C(=N)N=C(N)N [MET, metformin]
Abdominal fat (W/BW) [1]: 2.564 ± 0.33 W/BW
Kidney (W/BW) [1]: 0.39 ± 0.03 W/BW
Kidney fat (W/BW) [1]: 0.89 ± 0.13 W/BW
Liver (W/BW) [1]: 2.60 ± 0.19 W/BW
Spleen (W/BW) [1]: 0.03 ± 0.02 W/BW
feed intake [2]: significantly lower
water intake [2]: significantly lower
blood glucose level after 12-hr fasting [3]: no increase in the blood glucose level
